Measured values as given in PubChem BioAssay (NCI).
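Method: 48-hour compound exposure of cells in 96-well plates, five concentrations, linear interpolation of endpoints. TGI: concentration producing complete growth inhibition.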

Assays:
Test in all cases: DTP human tumour cell line panel, 48 h
786-0 renal = tested on: 786-0 renal
A549 NSCLC = tested on: A549 NSCLC
CAKI-1 renal = tested on: CAKI-1 renal
CCRF-CEM leukemia = tested on: CCRF-CEM leukemia
COLO 205 colon = tested on: COLO 205 colon
DLD-1 colon = tested on: DLD-1 colon
DMS 114 small cell lung = tested on: DMS 114 small cell lung
EKVX NSCLC = tested on: EKVX NSCLC
HCC-2998 colon = tested on: HCC-2998 colon
HCT-116 colon = tested on: HCT-116 colon
HL-60(TB) leukemia = tested on: HL-60(TB) leukemia
HOP-18 NSCLC = tested on: HOP-18 NSCLC
HOP-62 NSCLC = tested on: HOP-62 NSCLC
HOP-92 NSCLC = tested on: HOP-92 NSCLC
HT29 colon = tested on: HT29 colon
IGROV1 ovarian = tested on: IGROV1 ovarian
K-562 leukemia = tested on: K-562 leukemia
KM12 colon = tested on: KM12 colon
M14 melanoma = tested on: M14 melanoma
M19-MEL melanoma = tested on: M19-MEL melanoma
MALME-3M melanoma = tested on: MALME-3M melanoma
MOLT-4 leukemia = tested on: MOLT-4 leukemia
NCI-H226 lung = tested on: NCI-H226 lung
OVCAR-3 ovarian = tested on: OVCAR-3 ovarian
OVCAR-4 ovarian = tested on: OVCAR-4 ovarian
OVCAR-8 ovarian = tested on: OVCAR-8 ovarian
RPMI-8226 leukemia = tested on: RPMI-8226 leukemia
SF-295 CNS = tested on: SF-295 CNS
SF-539 CNS = tested on: SF-539 CNS
SK-MEL-2 melanoma = tested on: SK-MEL-2 melanoma
SK-MEL-5 melanoma = tested on: SK-MEL-5 melanoma
SK-OV-3 ovarian = tested on: SK-OV-3 ovarian
SNB-19 CNS = tested on: SNB-19 CNS
SNB-78 CNS = tested on: SNB-78 CNS
SW-620 colon = tested on: SW-620 colon
TK-10 renal = tested on: TK-10 renal
UACC-257 melanoma = tested on: UACC-257 melanoma
UACC-62 melanoma = tested on: UACC-62 melanoma
UO-31 renal = tested on: UO-31 renal
A498 renal = tested on: A498 renal
ACHN renal = tested on: ACHN renal
DMS 273 small cell lung = tested on: DMS 273 small cell lung
HCT-15 colon = tested on: HCT-15 colon
KM20L2 colon = tested on: KM20L2 colon
LOX IMVI melanoma = tested on: LOX IMVI melanoma
LXFL 529 NSCLC = tested on: LXFL 529 NSCLC
NCI-H23 lung = tested on: NCI-H23 lung
NCI-H460 lung = tested on: NCI-H460 lung
NCI-H522 lung = tested on: NCI-H522 lung
OVCAR-5 ovarian = tested on: OVCAR-5 ovarian
RXF 393 renal = tested on: RXF 393 renal
SF-268 CNS = tested on: SF-268 CNS
SK-MEL-28 melanoma = tested on: SK-MEL-28 melanoma
SN12C renal = tested on: SN12C renal
SNB-75 CNS = tested on: SNB-75 CNS
U251 CNS = tested on: U251 CNS

With `CSc1nc(NC2OC(COC(C)=O)C(OC(C)=O)C(OC(C)=O)C2OC(C)=O)c(N=C(C)C(C)=O)c(=O)[nH]1` (centres undefined) the TGI (786-0 renal) was > 100 µM, the TGI (A549 NSCLC) was > 100 µM and the TGI (CAKI-1 renal) was > 100 µM. For the same compound, the TGI (CCRF-CEM leukemia) was > 100 µM, the TGI (COLO 205 colon) was > 100 µM and the TGI (DLD-1 colon) was > 100 µM. For the same compound, the TGI (DMS 114 small cell lung) was > 100 µM, the TGI (EKVX NSCLC) was > 100 µM and the TGI (HCC-2998 colon) was > 100 µM. The TGI (HCT-116 colon) was > 100 µM, the TGI (HL-60(TB) leukemia) was > 100 µM and the TGI (HOP-18 NSCLC) was > 100 µM. For the same compound, the TGI (HOP-62 NSCLC) was > 100 µM, the TGI (HOP-92 NSCLC) was > 100 µM and the TGI (HT29 colon) was > 100 µM. For the same compound, the TGI (IGROV1 ovarian) was > 100 µM, the TGI (K-562 leukemia) was > 100 µM and the TGI (KM12 colon) was > 100 µM. For the same compound, the TGI (M14 melanoma) was > 100 µM, the TGI (M19-MEL melanoma) was > 100 µM and the TGI (MALME-3M melanoma) was > 100 µM. For the same compound, the TGI (MOLT-4 leukemia) was > 100 µM, the TGI (NCI-H226 lung) was > 100 µM and the TGI (OVCAR-3 ovarian) was > 100 µM. For the same compound, the TGI (OVCAR-4 ovarian) was > 100 µM, the TGI (OVCAR-8 ovarian) was > 100 µM and the TGI (RPMI-8226 leukemia) was > 100 µM. For the same compound, the TGI (SF-295 CNS) was > 100 µM, the TGI (SF-539 CNS) was > 100 µM and the TGI (SK-MEL-2 melanoma) was > 100 µM. The TGI (SK-MEL-5 melanoma) was > 100 µM, the TGI (SK-OV-3 ovarian) was > 100 µM and the TGI (SNB-19 CNS) was > 100 µM. The TGI (SNB-78 CNS) was > 100 µM, the TGI (SW-620 colon) was > 100 µM and the TGI (TK-10 renal) was > 100 µM. The TGI (UACC-257 melanoma) was > 100 µM, the TGI (UACC-62 melanoma) was > 100 µM and the TGI (UO-31 renal) was > 100 µM.

In the case of `CCOC(=O)C(C)Sc1nnc(COc2ccccc2OC)n1-c1ccccc1` (centres undefined), the TGI (786-0 renal) is reported as > 100 µM, the TGI (A498 renal) is reported as > 100 µM and the TGI (A549 NSCLC) is reported as > 100 µM. For the same compound, the TGI (ACHN renal) was > 100 µM, the TGI (CAKI-1 renal) was > 100 µM and the TGI (CCRF-CEM leukemia) was > 100 µM. The TGI (COLO 205 colon) was > 100 µM, the TGI (DLD-1 colon) was > 100 µM and the TGI (DMS 114 small cell lung) was 28.1 µM. The TGI (DMS 273 small cell lung) was > 100 µM, the TGI (EKVX NSCLC) was > 100 µM and the TGI (HCC-2998 colon) was > 100 µM. The TGI (HCT-116 colon) was > 100 µM, the TGI (HCT-15 colon) was 30.6 µM and the TGI (HL-60(TB) leukemia) was > 100 µM. For the same compound, the TGI (HOP-18 NSCLC) was > 100 µM, the TGI (HOP-62 NSCLC) was > 100 µM and the TGI (HOP-92 NSCLC) was > 100 µM. For the same compound, the TGI (HT29 colon) was > 100 µM, the TGI (IGROV1 ovarian) was > 100 µM and the TGI (K-562 leukemia) was > 100 µM. For the same compound, the TGI (KM12 colon) was > 100 µM, the TGI (KM20L2 colon) was > 100 µM and the TGI (LOX IMVI melanoma) was 34.4 µM. For the same compound, the TGI (LXFL 529 NSCLC) was > 100 µM, the TGI (M14 melanoma) was > 100 µM and the TGI (M19-MEL melanoma) was > 100 µM. The TGI (MALME-3M melanoma) was > 100 µM, the TGI (NCI-H226 lung) was > 100 µM and the TGI (NCI-H23 lung) was > 100 µM. The TGI (NCI-H460 lung) was 32.2 µM, the TGI (NCI-H522 lung) was > 100 µM and the TGI (OVCAR-3 ovarian) was > 100 µM. For the same compound, the TGI (OVCAR-4 ovarian) was > 100 µM, the TGI (OVCAR-5 ovarian) was > 100 µM and the TGI (OVCAR-8 ovarian) was > 100 µM. The TGI (RPMI-8226 leukemia) was 59.9 µM, the TGI (RXF 393 renal) was > 100 µM and the TGI (SF-268 CNS) was > 100 µM. For the same compound, the TGI (SF-295 CNS) was > 100 µM, the TGI (SF-539 CNS) was > 100 µM and the TGI (SK-MEL-2 melanoma) was > 100 µM. For the same compound, the TGI (SK-MEL-28 melanoma) was > 100 µM, the TGI (SK-MEL-5 melanoma) was > 100 µM and the TGI (SK-OV-3 ovarian) was > 100 µM. The TGI (SN12C renal) was > 100 µM, the TGI (SNB-19 CNS) was > 100 µM and the TGI (SNB-75 CNS) was > 100 µM. For the same compound, the TGI (SNB-78 CNS) was > 100 µM, the TGI (SW-620 colon) was 47 µM and the TGI (TK-10 renal) was > 100 µM. For the same compound, the TGI (U251 CNS) was > 100 µM, the TGI (UACC-257 melanoma) was > 100 µM and the TGI (UACC-62 melanoma) was > 100 µM. For the same compound, the TGI (UO-31 renal) was > 100 µM.
